Laboratory results published in patent publication US10449200B2, “Combined inhibition of the vitamin D receptor and poly(ADP) ribose polymerase (PARP) in the treatment of cancer” (Institute for Cancer Research, priority 2014, dated 2019).
pIC50: −log10 of the molar value.

How the values were obtained:
Panc1 cells [1] = experiment: Clonogenic survival assay, gemcitabine; assay type: cell-based, human; settings: for pIC50: Homo sapiens
Method: (§1) Cell culture and chemicals. Panc1, BxPC3, and CFPAC1 cells were purchased from American Type Culture Collection (ATCC) and banked in house until use. Cell lines were cultured in DMEM/10% FBS supplemented with 2 mM glutamine and 1% penicillin, streptomycin, and kanamycin (PSK) and were maintained at 37° C. in 5% CO2. Charcoal stripped (in house cell culture facility) and dialyzed FBS (Life Technologies; 509 26400-036) were used. Gemcitabine was obtained from the in house pharmacy. Rucaparib and trichostatin A were gifts.
(§2) Cell viability assays. For clonogenic assays, 1000 cells per well were seeded into 6 well plates on day 0. Cells were treated with gemcitabine at various doses on day 1 for 24 hours, Gemcitabine was washed out on day 2, and cells were allowed to grow for a subsequent 10 days before being fixed (10% methanol+10% acetic acid) and stained with crystal violet (0.4% in 20% ethanol) for colony counting and quantitation. For Rucaparib clonogenic assays, the drug was added at various doses 24 hours after cell plating, and cells were allowed to grow for a subsequent 10 days in the presence of Rucaparib. For TSA clonogenic assays, the drug was added for 4 hours prior to addition of gemcitabine or vehicle for another 18 hours before drugs were washed away, and cells were allowed to grow in drug-free medium for 10 days.

BxPC3 cells [2] = experiment: TSA clonogenic assay (TSA + gemcitabine); assay type: cell-based; settings: Homo sapiens
Method: as §2
To test the functional relevance of the TSA mediated Rad51 foci formation in the VDR knockdown cells, whether TSA altered the sensitivity to gemcitabine was investigated. […] Parental cell sensitivity to gemcitabine was increased by TSA treatments at the concentrations tested (p=0.02).

BxPC3 cells [3] = experiment: Clonogenic survival assay, gemcitabine kill curves; assay type: cell-based, human
Method: as §1, §2

Panc1 cells [4] = experiment: Cell viability (Cell Titer Glo) in siRNA screen; assay type: cell-based; settings: Homo sapiens, PANC-1, read-out: sublethal dose (IC20)
Method: Synthetic lethal RNAi Screen. High throughput RNAi was performed using the validated human genome-wide siRNA library version 2.0 obtained from Dharmacon. This is a SMARTPool (4 siRNAs per gene) library that targeted ^˜23,500 of the annotated genes, and has been validated to deplete mRNA by 75%. Stock siRNA was diluted in siRNA buffer (Dharmacon; B-002000-UB-100) and 10 ng of siRNA was reverse transfected into Panc1 cells seeded into white Corning 384-well plates (Fisher Scientific; 07-201-320) in quadruplicates on day 0. Briefly, diluted Dharmafect1 reagent (Dharmacon; T-2001-01) in OptiMEM (Life Technologies; 51985091) was added to the wells and allowed to complex with siRNA for 20 minutes at room temperature. Panc1 cells in 100 μl of DMEM/10% FBS media without PSK were mixed with 100 μl of transfection mix at 1000 cells/well. Plates were incubated at 37° C. with 5% CO2. […] Total viable cell number was determined by the addition of Cell Titer Glo (Promega; G7573) and relative luminescence units (RLU) were measured using an EnVision plate reader (Perkin Elmer). […] The effect of gemcitabine treatment on viability was measured based on the normalized viabilities in the drug treated and vehicle wells using Limma, Statistical significance was measured by p-values controlled for the false discovery rate (FDR) using the Benjamini-Hochberg step-up method to account for multiple testing. […]

Panc1 cells [5] = experiment: Immunofluorescence of DNA damage foci (phospho-γH2AX, Rad51) after gemcitabine; assay type: cell-based, human
Method: For Immunofluorescence, cells were plated onto coverslips 24 hours pre-gemcitabine treatment. At different timepoints post gemcitabine treatment, cells were permeablized, fixed (4% paraformaldehyde) and stained. Antibodies to γH2AX (Millipore; 05-636), Rad51 (a gift), and 53BP1 were used. Alexa Fluor-conjugated (488, 555, and 647 nm) secondary antibodies (Molecular probes; A-11029, A-21428, A-21247) were used at a final concentration of 1 and nuclei counterstained with DAPI. Images were captured using a 40× or 63× high NA objective mounted on a semi-automated inverted microscope (Nikon TEi) with a charge-coupled device camera (Photometrics1394) using Nikon Elements 2.0. Exposure times for antibodies were optimized for control samples and identical exposure times used for the experimental samples. Images were quantitated and analyzed using Nikon Elements 2.0. Confocal images were taken using a Leica TCS-SP8 microscope controlled by LAS software (Leica Microsystems).
It was investigated if these repair pathways were abrogated after VDR knockdown by staining for foci formation by phospho-γH2AX, Rad51, and 53BP1, and measuring intensities after gemcitabine treatment (FIGS. 3, 4, and 5). BxPC3 (high VDR expression) and Panc1 (low VDR expression) cells were treated with gemcitabine (50 nM) for 2, 4, 8, and 18 hours, and fixed and stained for phospho-γH2AX, 53BP1, and Rad51. Foci quantitation included counting of nuclei with >5 foci and a separate measurement of the sum intensities of foci that were averaged for 5 separate immunofluorescence experiments.

Nc1ccn([C@@H]2O[C@H](CO)[C@@H](O)C2(F)F)c(=O)n1 [gemcitabine]
pIC50 (Panc1 cells [1]; PANC-1, Panc1, VDR knockdown (siRNA)): ~7.74 | pIC50 (Panc1 cells [1]; PANC-1, Panc1, control cells (control shRNA)): ~7.72 | pIC50 (Panc1 cells [1]; PANC-1, Panc1, control transfected): ~7.52 | pIC50 (Panc1 cells [1]; PANC-1, Panc1, p300 knockdown): ~7.80 | pIC50 (Panc1 cells [1]; PANC-1, Panc1 transfected with WT-VDR (overexpression)): ~6.60 | pIC50 (Panc1 cells [1]; PANC-1, Panc1 transfected with vector): ~7.60 | pIC50 (Panc1 cells [1]; PANC-1, Panc1 cells): ~7.52 | cells survived (colony formation) compared to control samples treated with gemcitabine (Panc1 cells [1]; Panc1, Chk1 siRNA, 50 nM gemcitabine 24 hours): 3% | cells survived (colony formation) compared to control samples treated with gemcitabine (Panc1 cells [1]; Panc1, VDR siRNA, 50 nM gemcitabine 24 hours): 8% | colony formation, vehicle versus gemcitabine (Panc1 cells [1]; Panc1, control siRNA, 50 nM gemcitabine 24 hours): did not differ significantly | increase of gemcitabine IC50 over controls (Panc1 cells [1]; Panc1 cells with increased VDR levels): ~10 fold | pIC50 (BxPC3 cells [2]; BXPC-3, BxPC3 VDRkd cells, with TSA (500 nM), read-out: IC50 of gemcitabine): 7.30 | pIC50 (BxPC3 cells [2]; BXPC-3, BxPC3 VDRkd cells, without TSA, read-out: IC50 of gemcitabine): 7.30 | pIC50 (BxPC3 cells [2]; BXPC-3, BxPC3 parental cells, gemcitabine alone, read-out: IC50 gemcitabine): ~6.70 | pIC50 (BxPC3 cells [2]; BXPC-3, BxPC3 parental cells, gemcitabine plus TSA (500 nM), read-out: IC50 gemcitabine): 7.00 | reduction in gemcitabine IC50 after depletion of VDR (BxPC3 cells [3]; BXPC3 cells): ~3 fold | pIC50 (BxPC3 cells [3]; BxPC3 VDRkd cells transfected with WT-VDR, read-out: IC50 gemcitabine): ~6.59 | pIC50 (BxPC3 cells [3]; Homo sapiens, BXPC-3, BxPC3, VDR siRNA, read-out: mean IC50 gemcitabine): ~7.22 | pIC50 (BxPC3 cells [3]; Homo sapiens, BXPC-3, BxPC3, control shRNA, read-out: IC50 gemcitabine): ~7.10 | pIC50 (BxPC3 cells [3]; Homo sapiens, BXPC-3, BxPC3, control siRNA, read-out: mean IC50 gemcitabine): ~6.70 | pIC50 (BxPC3 cells [3]; Homo sapiens, BXPC-3, BxPC3, p300 shRNA, read-out: IC50 gemcitabine): ~7.40 | pIC50 (BxPC3 cells [3]; Homo sapiens, BXPC-3, BxPC3 VDRkd cells transfected with WT-VDR, read-out: IC50 gemcitabine): ~6.52 | pIC50 (BxPC3 cells [3]; Homo sapiens, BXPC-3, BxPC3 VDRkd cells, WT-VDR co-transfected with AML1/ETO, read-out: IC50 gemcitabine): ~7.10 | pIC50 (BxPC3 cells [3]; Homo sapiens, BXPC-3, BxPC3 VDRkd cells, WT-VDR co-transfected with S237M mutant, read-out: IC50 gemcitabine): ~7.22 | pIC50 (BxPC3 cells [3]; Homo sapiens, BXPC-3, BxPC3 VDRkd cells, untransfected, read-out: IC50 gemcitabine): ~7.30 | pIC50 (BxPC3 cells [3]; Homo sapiens, BXPC-3, BxPC3 VDRkd cells, vector transfected, read-out: IC50 gemcitabine): ~7.30 | pIC50 (BxPC3 cells [3]; Homo sapiens, BXPC-3, BxPC3 cells (highest VDR levels), read-out: mean IC50 gemcitabine): ~6.70 | increase of gemcitabine IC50 over vector controls (BxPC3 cells [3]; wild type VDR transfected into VDR depleted BXPC3 cells): ~6 fold | IC20 (Panc1 cells [4]): 50 nM | time until Rad51 foci visible after gemcitabine (Panc1 cells [5]; Panc1, gemcitabine 50 nM): 18 h | time until phospho-γH2AX foci form after gemcitabine (Panc1 cells [5]; Panc1, gemcitabine 50 nM): 18 h | time until phospho-γH2AX and Rad51 foci after gemcitabine addition (Panc1 cells [5]; Panc1 transfected with VDR siRNA): 18 h | time until phospho-γH2AX and Rad51 foci after gemcitabine addition (Panc1 cells [5]; Panc1 transfected with control): ~8 h
